Blank lines part the entries; values can stand above or below the compound they belong to.
Columns and labels:
[1] = target: Serine/threonine-protein kinase PRP4 homolog (Homo sapiens) (UniProt Q13523); assay: Selectivity interaction (KinomeScan (DiscoverX)) EUB0000666a PRPF4B; conditions: at 10 µM
[2] = target: Platelet-derived growth factor receptor alpha (Homo sapiens, UniProt P16234); assay: Selectivity interaction (Kinase panel (Invitrogen)) EUB0000639a PDGFRA; conditions: at 200 nM
[3] = target: T1, Phosphatidylinositol 5-phosphate 4-kinase type-2 gamma (Homo sapiens) (UniProt Q8TBX8); assay: Selectivity interaction (KinomeScan (DiscoverX)) EUB0000595a PIP4K2C; conditions: at 10 µM
T1 sequence (whole entry): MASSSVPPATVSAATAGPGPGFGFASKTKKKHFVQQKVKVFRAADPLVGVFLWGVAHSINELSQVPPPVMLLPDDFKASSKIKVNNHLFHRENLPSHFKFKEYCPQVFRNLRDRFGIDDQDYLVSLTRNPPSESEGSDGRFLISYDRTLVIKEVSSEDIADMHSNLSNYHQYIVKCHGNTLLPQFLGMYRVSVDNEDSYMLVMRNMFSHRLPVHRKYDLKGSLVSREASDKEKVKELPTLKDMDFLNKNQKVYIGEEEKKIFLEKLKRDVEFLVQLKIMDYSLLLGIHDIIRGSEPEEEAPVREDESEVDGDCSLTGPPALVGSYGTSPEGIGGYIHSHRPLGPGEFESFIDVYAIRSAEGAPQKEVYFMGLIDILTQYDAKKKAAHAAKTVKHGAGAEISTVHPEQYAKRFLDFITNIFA

[4] = target: T2, cGMP-dependent protein kinase 2 (Homo sapiens) (UniProt Q13237); assay: Selectivity interaction (KinomeScan (DiscoverX)) EUB0000229b PRKG2; conditions: at 10 µM
T2 sequence (whole entry): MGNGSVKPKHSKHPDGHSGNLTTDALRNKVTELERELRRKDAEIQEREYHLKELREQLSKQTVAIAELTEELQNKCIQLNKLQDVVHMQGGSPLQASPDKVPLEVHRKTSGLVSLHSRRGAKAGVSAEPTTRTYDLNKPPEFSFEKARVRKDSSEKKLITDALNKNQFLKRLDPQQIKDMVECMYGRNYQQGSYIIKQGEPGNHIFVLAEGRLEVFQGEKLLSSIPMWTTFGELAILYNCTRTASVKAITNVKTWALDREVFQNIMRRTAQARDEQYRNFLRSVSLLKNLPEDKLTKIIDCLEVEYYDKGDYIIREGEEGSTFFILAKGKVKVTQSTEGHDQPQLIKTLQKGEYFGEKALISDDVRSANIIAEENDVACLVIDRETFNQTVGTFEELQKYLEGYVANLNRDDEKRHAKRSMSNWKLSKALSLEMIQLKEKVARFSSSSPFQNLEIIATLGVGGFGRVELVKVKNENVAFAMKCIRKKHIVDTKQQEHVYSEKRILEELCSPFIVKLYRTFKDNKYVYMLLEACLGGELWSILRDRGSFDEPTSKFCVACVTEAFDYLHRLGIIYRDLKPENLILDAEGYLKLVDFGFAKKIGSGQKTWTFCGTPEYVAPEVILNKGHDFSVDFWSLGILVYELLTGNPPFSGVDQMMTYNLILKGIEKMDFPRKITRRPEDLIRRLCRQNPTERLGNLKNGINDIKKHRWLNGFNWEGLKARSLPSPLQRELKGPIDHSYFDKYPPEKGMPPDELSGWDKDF

[5] = target: T3, Ephrin type-A receptor 6 (Homo sapiens) (UniProt Q9UF33); conditions: at 10 µM
T3 sequence (whole entry): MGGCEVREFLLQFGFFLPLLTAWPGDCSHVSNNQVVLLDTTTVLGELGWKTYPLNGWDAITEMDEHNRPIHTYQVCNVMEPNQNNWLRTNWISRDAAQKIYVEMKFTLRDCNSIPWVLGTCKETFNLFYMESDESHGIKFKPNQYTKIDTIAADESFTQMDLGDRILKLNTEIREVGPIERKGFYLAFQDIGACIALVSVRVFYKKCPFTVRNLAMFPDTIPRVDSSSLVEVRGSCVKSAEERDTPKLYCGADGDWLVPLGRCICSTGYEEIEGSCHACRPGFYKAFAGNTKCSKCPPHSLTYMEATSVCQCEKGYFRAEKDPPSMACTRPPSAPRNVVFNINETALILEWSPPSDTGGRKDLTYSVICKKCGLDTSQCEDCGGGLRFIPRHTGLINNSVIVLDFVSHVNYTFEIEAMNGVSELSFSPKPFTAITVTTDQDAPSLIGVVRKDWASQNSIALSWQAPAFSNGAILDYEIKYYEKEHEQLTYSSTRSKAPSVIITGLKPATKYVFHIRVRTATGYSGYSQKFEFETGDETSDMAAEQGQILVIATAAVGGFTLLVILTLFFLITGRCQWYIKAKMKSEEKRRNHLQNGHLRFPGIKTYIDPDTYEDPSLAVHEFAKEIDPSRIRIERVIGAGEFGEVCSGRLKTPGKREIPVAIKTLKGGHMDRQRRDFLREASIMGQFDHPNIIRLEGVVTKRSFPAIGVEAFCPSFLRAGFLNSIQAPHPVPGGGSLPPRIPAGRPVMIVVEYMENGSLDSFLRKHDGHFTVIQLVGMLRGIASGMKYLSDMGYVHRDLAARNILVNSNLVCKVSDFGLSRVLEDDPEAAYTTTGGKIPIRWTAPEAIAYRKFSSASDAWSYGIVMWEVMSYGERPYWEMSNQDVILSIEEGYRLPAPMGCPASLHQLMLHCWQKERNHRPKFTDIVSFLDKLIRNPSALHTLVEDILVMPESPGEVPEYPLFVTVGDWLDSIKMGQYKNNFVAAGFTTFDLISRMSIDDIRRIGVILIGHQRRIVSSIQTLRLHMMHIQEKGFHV

[6] = target: T4, Mitogen-activated protein kinase kinase kinase 2 (Homo sapiens) (UniProt Q9Y2U5); conditions: at 10 µM
T4 sequence (whole entry): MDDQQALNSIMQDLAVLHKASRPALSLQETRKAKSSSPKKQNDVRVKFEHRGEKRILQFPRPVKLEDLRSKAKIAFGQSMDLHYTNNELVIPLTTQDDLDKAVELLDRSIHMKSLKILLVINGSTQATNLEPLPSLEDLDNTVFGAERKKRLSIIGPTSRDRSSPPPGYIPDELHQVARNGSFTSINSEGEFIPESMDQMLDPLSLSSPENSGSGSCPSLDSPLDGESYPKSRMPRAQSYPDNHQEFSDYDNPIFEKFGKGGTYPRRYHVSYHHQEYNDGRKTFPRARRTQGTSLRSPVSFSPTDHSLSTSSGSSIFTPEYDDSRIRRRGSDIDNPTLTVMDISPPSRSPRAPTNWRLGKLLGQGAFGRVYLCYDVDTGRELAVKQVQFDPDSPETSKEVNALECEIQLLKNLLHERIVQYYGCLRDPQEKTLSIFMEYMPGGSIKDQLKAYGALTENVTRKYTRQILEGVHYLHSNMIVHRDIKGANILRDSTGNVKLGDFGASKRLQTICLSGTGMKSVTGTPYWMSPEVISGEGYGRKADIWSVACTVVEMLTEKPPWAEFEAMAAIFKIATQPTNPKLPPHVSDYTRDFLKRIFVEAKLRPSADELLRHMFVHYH

Sequence of Platelet-derived growth factor receptor alpha (P16234 whole entry): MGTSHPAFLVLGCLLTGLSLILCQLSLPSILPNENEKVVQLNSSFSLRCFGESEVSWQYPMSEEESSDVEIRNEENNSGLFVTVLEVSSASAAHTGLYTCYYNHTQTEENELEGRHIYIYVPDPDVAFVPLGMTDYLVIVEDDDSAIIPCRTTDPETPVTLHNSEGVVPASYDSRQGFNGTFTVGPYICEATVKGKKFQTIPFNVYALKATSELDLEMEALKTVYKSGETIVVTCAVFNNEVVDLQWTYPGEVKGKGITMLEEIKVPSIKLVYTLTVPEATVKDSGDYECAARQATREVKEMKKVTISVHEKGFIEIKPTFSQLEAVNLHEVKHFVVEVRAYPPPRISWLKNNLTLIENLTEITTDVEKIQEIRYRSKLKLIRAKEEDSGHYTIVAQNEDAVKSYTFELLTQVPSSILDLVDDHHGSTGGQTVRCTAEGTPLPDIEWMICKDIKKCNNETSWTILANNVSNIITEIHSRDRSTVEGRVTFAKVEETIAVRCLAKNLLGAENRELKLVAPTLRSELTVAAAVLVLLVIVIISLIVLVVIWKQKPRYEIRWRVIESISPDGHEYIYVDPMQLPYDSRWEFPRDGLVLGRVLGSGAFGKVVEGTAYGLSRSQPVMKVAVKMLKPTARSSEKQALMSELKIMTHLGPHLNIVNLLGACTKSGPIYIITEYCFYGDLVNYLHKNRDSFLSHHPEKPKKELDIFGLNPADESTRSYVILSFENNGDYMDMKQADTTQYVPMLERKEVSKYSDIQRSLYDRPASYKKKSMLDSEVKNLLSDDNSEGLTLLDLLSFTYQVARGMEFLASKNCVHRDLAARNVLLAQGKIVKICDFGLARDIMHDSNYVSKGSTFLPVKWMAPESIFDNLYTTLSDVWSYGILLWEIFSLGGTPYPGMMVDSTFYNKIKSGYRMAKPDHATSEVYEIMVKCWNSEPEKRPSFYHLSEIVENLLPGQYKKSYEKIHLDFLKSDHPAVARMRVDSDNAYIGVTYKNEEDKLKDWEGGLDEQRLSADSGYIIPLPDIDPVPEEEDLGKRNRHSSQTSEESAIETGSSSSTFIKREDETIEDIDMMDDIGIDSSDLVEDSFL
Sequence of Serine/threonine-protein kinase PRP4 homolog (Homo sapiens) (Q13523 whole entry): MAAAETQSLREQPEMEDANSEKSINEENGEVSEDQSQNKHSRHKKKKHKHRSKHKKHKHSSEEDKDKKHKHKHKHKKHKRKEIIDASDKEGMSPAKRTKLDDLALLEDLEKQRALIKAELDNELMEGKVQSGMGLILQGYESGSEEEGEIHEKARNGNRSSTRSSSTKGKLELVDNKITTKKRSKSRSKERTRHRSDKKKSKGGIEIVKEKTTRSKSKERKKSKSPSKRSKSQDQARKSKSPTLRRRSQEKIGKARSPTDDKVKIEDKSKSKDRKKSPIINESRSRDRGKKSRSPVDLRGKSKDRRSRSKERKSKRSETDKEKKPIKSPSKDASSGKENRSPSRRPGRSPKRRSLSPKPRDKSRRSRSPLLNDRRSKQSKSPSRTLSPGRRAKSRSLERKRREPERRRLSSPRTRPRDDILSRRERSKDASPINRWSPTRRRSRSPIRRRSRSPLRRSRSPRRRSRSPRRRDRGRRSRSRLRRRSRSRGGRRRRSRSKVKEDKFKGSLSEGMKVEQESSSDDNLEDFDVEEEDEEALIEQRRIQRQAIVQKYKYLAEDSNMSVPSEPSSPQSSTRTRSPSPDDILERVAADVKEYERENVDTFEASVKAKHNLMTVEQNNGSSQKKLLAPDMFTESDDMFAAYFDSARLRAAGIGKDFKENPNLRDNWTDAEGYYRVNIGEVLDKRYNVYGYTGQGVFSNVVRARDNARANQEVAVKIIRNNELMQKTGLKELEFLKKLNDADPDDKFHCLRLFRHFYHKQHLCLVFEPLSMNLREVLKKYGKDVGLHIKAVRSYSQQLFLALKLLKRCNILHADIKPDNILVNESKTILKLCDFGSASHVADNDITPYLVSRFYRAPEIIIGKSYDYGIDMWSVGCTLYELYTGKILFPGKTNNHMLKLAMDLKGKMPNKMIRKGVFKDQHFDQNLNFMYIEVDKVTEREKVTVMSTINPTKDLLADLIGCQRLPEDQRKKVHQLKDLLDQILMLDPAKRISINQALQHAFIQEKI

SMILES: O=C(NOC[C@H](O)CO)c1ccc(F)c(F)c1Nc1ccc(I)cc1F
% of control [1]: 77%

% of inhibition [2]: -1.69%
SMILES: CC[C@@H]1[C@H](F)C(=O)N[C@@H]1COc1nccc2cc(C(N)=O)c(OC)cc12 [ZIMLOVISERTIB]

SMILES: COCC(=O)NC/C=C/c1ccc2ncnc(Nc3ccc(Oc4ccc(C)nc4)c(C)c3)c2c1 [CP-724714]
% of control [3]: 84%

SMILES: COc1cc(N(C)c2ccnc3ccc(C(F)(F)F)cc23)cc(OC)c1OC
% binding [4]: 78%

SMILES: Cc1cc([C@@H](C)Nc2ccccc2C(=O)O)c2nc(N3CCOCC3)cc(=O)n2c1 [AZD-6482]
% of control [5]: 100% | % of control [6]: 100%
